How the values were obtained:
[1] = target: T1, soybean CYP71A10 (Glycine max, UniProt O48918); test: In vitro herbicide metabolism assay and enzyme kinetics, microsomes of yeast expressing CYP71A10; format: biochemical
T1 construct: microsomes of yeast W(R) overexpressing endogenous P450 reductase
T1 sequence (O48918 1-513): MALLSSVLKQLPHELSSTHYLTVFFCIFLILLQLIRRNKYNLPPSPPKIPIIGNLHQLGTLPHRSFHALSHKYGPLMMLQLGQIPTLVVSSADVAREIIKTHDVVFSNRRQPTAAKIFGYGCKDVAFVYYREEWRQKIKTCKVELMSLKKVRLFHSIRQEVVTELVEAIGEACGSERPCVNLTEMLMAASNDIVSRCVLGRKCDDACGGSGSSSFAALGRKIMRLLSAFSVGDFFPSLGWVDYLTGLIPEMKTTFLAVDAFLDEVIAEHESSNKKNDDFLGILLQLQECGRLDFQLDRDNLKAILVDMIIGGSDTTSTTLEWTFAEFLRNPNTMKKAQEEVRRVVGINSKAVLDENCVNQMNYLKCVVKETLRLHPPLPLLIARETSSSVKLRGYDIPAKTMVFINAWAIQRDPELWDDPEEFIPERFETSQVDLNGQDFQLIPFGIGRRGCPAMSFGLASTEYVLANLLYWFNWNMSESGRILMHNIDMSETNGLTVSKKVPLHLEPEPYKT
T1 sequence (P16603 1-691 partner): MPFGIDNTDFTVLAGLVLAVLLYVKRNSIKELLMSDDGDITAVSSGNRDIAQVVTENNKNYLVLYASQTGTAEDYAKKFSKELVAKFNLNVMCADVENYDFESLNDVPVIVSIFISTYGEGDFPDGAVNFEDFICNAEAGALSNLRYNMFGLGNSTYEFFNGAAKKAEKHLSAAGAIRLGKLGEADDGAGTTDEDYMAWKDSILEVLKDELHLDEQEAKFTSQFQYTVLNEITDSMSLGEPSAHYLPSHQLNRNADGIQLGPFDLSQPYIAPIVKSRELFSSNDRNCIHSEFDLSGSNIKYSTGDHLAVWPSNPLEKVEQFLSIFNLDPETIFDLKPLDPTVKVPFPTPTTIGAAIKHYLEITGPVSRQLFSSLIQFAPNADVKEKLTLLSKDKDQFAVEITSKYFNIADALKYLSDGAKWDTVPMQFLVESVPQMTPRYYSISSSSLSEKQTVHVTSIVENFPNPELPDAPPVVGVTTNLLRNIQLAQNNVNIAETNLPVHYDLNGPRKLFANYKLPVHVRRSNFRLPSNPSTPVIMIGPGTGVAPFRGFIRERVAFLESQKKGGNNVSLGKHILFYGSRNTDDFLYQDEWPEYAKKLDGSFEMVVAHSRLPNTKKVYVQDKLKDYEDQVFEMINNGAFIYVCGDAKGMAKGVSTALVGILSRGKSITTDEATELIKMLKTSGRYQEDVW
Method: Yeast transformation was performed as described by Geitz et al., Nucleic Acids Research 20:1425 (1992). Media composition, culturing conditions, galactose induction, and microsomal preparations were conducted according to Pompon et al., Methods Enzymol. 272:51-64 (1995), using a culture volume of 250 ml. Microsomal protein was quantified spectrophotometrically using the method of Waddell, J. Lab. Clin. Med. 48:311-314 (1956), using bovine albumin as a standard. Dithionite-reduced, carbon monoxide difference spectra was obtained as previously outlined (Estabrook and Werringloer, Methods Ennzmol. 52:212-220 (1978)) using a Shimadzu Recording Spectrophotometer UV-240 (Shimadzu, Kyoto, Japan). P-450 protein concentrations of yeast microsomes were calculated using a millimolar extinction coefficient of 91 (Omura and Sato, J. Biol. Chem., 239:2370-2378 (1964)).
Yeast microsomes enriched for a discrete soybean P-450 isozyme were assayed for their capacity to metabolize the ten herbicides and one insecticide listed in Table 3. The reaction mixtures contained 10,000 DPM (100-200 ng) radiolabeled substrate, 0.75 mM NAPDH, 2.5 mg/ml microsomal protein. Total reaction volumes were adjusted to 150 μl with 50 mM phosphate buffer (pH 7.1). The mixtures were incubated under light for 45 minutes at 27° C., arrested with 50 μl acetone and centriftiged at 14 000×g for 2 minutes. […] Radiolabeled bentazon and imazaquin-containing samples were spotted onto 200 micron Whatman LKC18F silica gel reversed-phase plates. All plates were developed in a benzene/acetone 2:1 (v/v) solvent system with the exception of prosulfaron, developed in toluene/acetone/acetic acid, 75:20:5 (v/v/v), and bentazon and imazaquin, developed in methanol/75 mM sodium acetate 40:60 (v/v). The developed plates were scanned with a Bioscan System 400 imaging scanner (Bioscan, Washington, D.C.), and the production of metabolites was determined based on the chromatographic profiles. For microsomes containing the expressed CYP71A10 enzyme, control experiments were also conducted to measure the NADPH-dependency, and the inhibitory effects of CO. CO treatment of the sample was achieved by gentle bubbling of the gas through the reaction mixture for 2 minutes immediately before the assay was initiated by the addition of NADPH.
Substrate conversion was quantified by a combination of TLC analysis and scintillation spectrometry. The location of the metabolic products on the TLC plates was identified using an imaging scanner, the bands were scraped and analyzed by scintillation spectrometry. The amount of metabolite produced was calculated based on specific activity and scintillation counts. Each assay was repeated at least twice. Km and Vmax values were estimated using nonlinear regression analysis.

[2] = tested on: excised leaves of transgenic tobacco plant 25/2 progeny (CYP71A10-transformed); test: In vivo herbicide metabolism assay, excised leaves of CYP71A10-transformed tobacco; set-up: species or system Nicotiana tabacum cv SR1; details: after 14 hours; 1.2 nmol herbicide; standard error in parentheses; four 25/2 plants
Method: Seeds from primary transgenic tobacco plants transformed with CYP71A10 and control plants transformed with the pBI121 vector were grown in Petri dishes containing MS salts and 100 μg/ml kanamycin. At five weeks post-seeding, kanamycin-resistant plantlets were transplanted into pots containing soil and grown an additional two weeks. Single leaves of approximately 10 cm^2 in size were excised and their petioles inserted into 100 μl of H2 O containing radiolabeled herbicide. The leaves were placed in a growth chamber maintaining a temperature of 27° C. and incubated until the entire volume of the herbicide solution was drawn up by the transpirational stream of the leaves (about 3 hrs). The leaves were subsequently transferred into an Eppendorf tube containing distilled water and further incubated for a total of 14 hours.
[^14 C]-labeled herbicide was extracted from the leaves by grinding for 5 minutes in 250 μl methanol with a plastic pellet pestle driven by an electric drill. After centrifugation for 3 minutes at 14,000 g, 75μl of the supernatant was spotted on a Whatman K6F silica plate and developed in a solvent system containing chloroforn/ethanol/acetic acid 135:10:15 (v/v/v). The separated herbicide derivatives were visualized using an imaging scanner. Substrate conversion was quantified based on the amount of herbicide absorbed, and the ratios of the parent compound and the produced metabolites determined from the TLC profiles.

Cc1ccc(NC(=O)N(C)C)cc1Cl [Chlortoluron, chlortoluron]
metabolites formed from the radiolabeled herbicide (TLC) ([1]; 45 minutes at 27° C., 0.75 mM NADPH, 2.5 mg/ml microsomal protein): two (a major and a minor) metabolites
Turnover ([1]; yeast microsomes containing CYP71A10, standard error in parentheses): 0.7 (0.05) min^-1
% of herbicide metabolized, CYP71A10-transformed [2]: 85 (8.1) %
